The subject of one test is GAK. Kind of test: Cell viability (CellTiter-Glo), GAK. In kind it is cell-based. The conditions noted are these: GAK cell line, 3-4 days of culture. On the procedure:
(§1) Cell viability was detected using the Promega CellTiter-Glo kit, the kit reflected cell viability by directly measuring intracellular ATP content. The inhibitory effect (IC50 value) of Gboxin, a mitochondrial oxidative phosphorylation pathway inhibitor, on different tumor cell lines was tested in the Example. The name, source, and culture condition of each tumor cell line were as follows:
Cell line GAK (JCRB, No. JCRB0180) was cultured in 20% fetal bovine serum-containing Ham's F12 medium (+P/S).
(§2) The above tumor cells were cultured in the relevant medium (+P/S), and incubated for 3 h, then the gradient diluted Gboxin was added, and IC50 (50% inhibiting concentration) was measured after 3-4 days of culture.

Another test has as its system ATF4 stress pathway. Kind of test: Western Blot of ATF4 in tumor cells after inhibitor treatment. As to conditions: 1 μM or 3 μM Gboxin, 1 μM Oligomycin A, 12 h; for activity of ATF4 stress pathway: FIG. 3; for ATF4 stress pathway (ATF4 content): FIG. 2. It is filed as cell-based, human. On the procedure: The inhibition of mitochondrial oxidative phosphorylation pathway could cause the activation of ATF4 stress pathway and the decrease of mTOR pathway activity, the activity of the mTOR pathway was reflected by the expression level of phosphorylated ribosomal protein S6 (ie, p-S6).
The tumor cells NCI-H82, G-401 and WSU-DLCL2 were cultured in the relevant 10% FBS-containing medium (+p/s), and incubated overnight, then 1 μM Gboxin, 3 μM Gboxin or 1 μM Oligomycin A as shown in FIG. 2 was added. After 12 h of incubation, the content of ATF4 and p-S6 protein was detected using Western Blot, the experiment result was shown in FIG. 2.
The cell lines SF126, CFPAC-1 and 786-O were cultured in the relevant 10% FBS-containing medium (+p/s), and incubated overnight, then 1 μM Gboxin, 3 μM Gboxin or 1 μM Oligomycin A as shown in FIG. 3 was added. After 12 h of incubation, the content of ATF4 and p-S6 protein was detected using Western Blot, the experiment result was shown in FIG. 3.
A general note: In western blotting, separated proteins are transferred to a membrane and probed.

The subject of a further test is ATN-1. The test can be described thus: Cell viability (CellTiter-Glo), ATN-1. As to conditions: Homo sapiens; ATN-1 cell line, 3-4 days of culture. It is filed as cell-based. On the procedure:
as §1
Cell line ATN-1 (RIKEN, No. RBRC-RCB1440) was cultured in RPMI1640 medium containing 10% fetal bovine serum and 0.1 mM NEAA (+P/S).
as §2
(In general: Cellular ATP, detected with luciferase, serves as a proxy for viable cell number.)

The subject of the next test is OCI-AML-4. The test can be described thus: Cell viability (CellTiter-Glo), OCI-AML-4. In kind it is cell-based. The conditions noted are these: OCI-AML-4 cell line, 3-4 days of culture. As for the experimental part: as §1
Cell line OCI-AML-4 (DSMZ, No. ACC-729) was cultured in alpha-MEM medium containing 20% fetal bovine serum and 20% volume fraction of 5637 cell line adjusted medium (+P/S).
as §2

The test system of another test is NCI-H1155. The test can be described thus: Cell viability (CellTiter-Glo), NCI-H1155. In kind it is cell-based. The conditions noted are these: Homo sapiens; NCI-H1155 cell line, 3-4 days of culture. As for the experimental part:
as §1
Cell line NCI-H1155 (ATCC, No. CRL-5818) was cultured in serum-free ACL-4 medium (+P/S).
as §2

Another test has as its system NCI-H1048. Kind of test: Cell viability (CellTiter-Glo), NCI-H1048. It is filed as cell-based. The conditions noted are these: Homo sapiens; NCI-H1048 cell line, 3-4 days of culture. On the procedure: as §1
Cell line NCI-H1048 (ATCC, No. CRL-5853) was cultured in 5% fetal bovine serum-containing HITES medium (+P/S).
as §2

The test system of the next test is Daoy. Kind of test: Cell viability (CellTiter-Glo), Daoy. The conditions noted are these: Homo sapiens; Daoy cell line, 3-4 days of culture. It is filed as cell-based. On the procedure:
as §1
Cell line Daoy (ATCC, No. HTB-186) was cultured in 10% fetal bovine serum-containing EMEM medium (+P/S).
as §2

Another test relates to NCI-H1651. The test can be described thus: Cell viability (CellTiter-Glo), NCI-H1651. It is filed as cell-based. The conditions noted are these: Homo sapiens; NCI-H1651 cell line, 3-4 days of culture. As for the experimental part: as §1
Cell line NCI-H1651 (ATCC, No. CRL-5884) was cultured in 10% fetal bovine serum-containing ACL-4 medium (+P/S).
as §2

For the next test, the system named is SNU-449. The test can be described thus: Cell viability (CellTiter-Glo), SNU-449. It is filed as cell-based. The conditions noted are these: Homo sapiens; SNU-449 cell line, 3-4 days of culture. As for the experimental part:
as §1
Cell line SNU-449 (ATCC, No. CRL-2234) was cultured in 10% fetal bovine serum-containing RPMI1640 medium (+P/S).
as §2

The subject of a further test is WSU-DLCL2. Kind of test: Cell viability (CellTiter-Glo), WSU-DLCL2. As to conditions: Homo sapiens, WSUDLCL2; WSU-DLCL2 cell line, 3-4 days of culture. It is filed as cell-based. As for the experimental part: as §1, with “follows: Cell line WSU-DLCL2 (DSMZ, No. ACC-575) was cultured in 10% fetal bovine serum-containing RPMI1640 medium (+P/S). […] Cell viability was detected using the Promega CellTiter-Glo kit, the kit reflected cell viability by directly measuring intracellular ATP content.” for “follows:”

A further test concerns SW48. Kind of test: Cell viability (CellTiter-Glo), SW48. In kind it is cell-based. As to conditions: Homo sapiens; SW48 cell line, 3-4 days of culture. On the procedure:
as §1, with “follows: Cell line SW48 (ATCC, No. CCL-231) was cultured in 10% fetal bovine serum-containing Leibovitz's L-15 medium (+P/S). […] Cell viability was detected using the Promega CellTiter-Glo kit, the kit reflected cell viability by directly measuring intracellular ATP content.” for “follows:”

The next test has as its system PANC-1. The test can be described thus: Cell viability (CellTiter-Glo), PANC-1. It is filed as cell-based. The conditions noted are these: Homo sapiens; PANC-1 cell line, 3-4 days of culture. On the procedure: as §1
Cell line PANC-1 (ATCC, No. CRL-1469) was cultured in 10% fetal bovine serum-containing DMEM medium (+P/S).
as §2

In another test the test system is HCC70. Kind of test: Cell viability (CellTiter-Glo), HCC70. In kind it is cell-based. The conditions noted are these: Homo sapiens; HCC70 cell line, 3-4 days of culture. On the procedure: as §1
Cell line HCC70 (ATCC, No. CRL-2315) was cultured in 10% fetal bovine serum-containing RPMI1640 medium (+P/S).
as §2

The values below come from patent US20230355647A1, “Marker for determining anti-cancer effects of mitochondrial oxidative phosphorylation pathway inhibitor” (NANJING SHIJIANG MEDICINE TECHNOLOGY CO., LTD, priority 2020, published 2023).

Molecules are shown by their SMILES.

By IC50 is commonly meant the concentration that inhibits the measured activity by half. A low value points to higher potency. For `CCc1n(CC(=O)O[C@@H]2C[C@H](C)CC[C@H]2C(C)C)c2ccccc2[n+]1C.[Cl-]` [Gboxin], the concentration for half-maximal inhibition (IC50) with GAK is 7.05 µM; with ATN-1, 1.55 µM; in the test on OCI-AML-4 it was 3.34 µM; in the test with NCI-H1155, 8.84 µM; with NCI-H1048, 4.34 µM; in the test with Daoy, 9.72 µM. Further, the IC50 is 22.4 µM with NCI-H1651; above 30 µM in the test with SNU-449; 0.682 µM with WSU-DLCL2; 1.54 µM with SW48; 12 µM in the test with PANC-1; 11.2 µM in the test on HCC70. In addition, the “activity of ATF4 stress pathway” value in the test on ATF4 stress pathway (786-O cells), in the test with ATF4 stress pathway (CFPAC-1 cells) and in the test with ATF4 stress pathway (SF126 cells) was “no significant changes” in each case. The “ATF4 stress pathway (ATF4 content)” value in the test with ATF4 stress pathway (G-401 cells), with ATF4 stress pathway (NCI-H82 cells) and in the test on ATF4 stress pathway (WSU-DLCL2 cells) was “up-regulated” in each case.
